In patent US20070244200A1, “Method for triggering angiogenic response” (priority 2006, published 2007):
“And” between values parts separate entries of the source, which are not always exact repeats. Identical values can stand only once.

Test system: rabbit aortic endothelial cells (RAEC)
Assay: Cord formation on Matrigel (in vitro angiogenesis assay)
Format: cell-based
Details: 18-24 h; for Percent Increase in Cord length, Set I / Percent Increase in Cord length, Set II / Percent Increase in Cord length, Set III: individual picture scores; for Percent Increase in Cord length, Mean: mean of 18 scores
Method: In carrying this invention, materials needed in this example include commercially available items as follows: a 96 Well Plate, for example, flat bottom 96 well plate (Falcon 353072); Media-BM-2 (Clonetics CC-3162), DMEM (Gibco Cat#11960044); Matrigel-Beckton Dickinson (Cat#40234); Cells; HUVEC (2×10^6/ml) in EBM-2 in EBM-2; and Image Analysis-Image-Pro Plus In this example, the assay is performed under hood is, a Laminar Flow Hood. Frozen Matrigel (Beckton Dickinson 40234) is placed overnight on ice to thaw. Then, a concentration of matrigel is adjusted to 10 mg/ml using DMEM media. An ice cold 96 well plate is then placed on ice in a flat dish. Using an ice cold tip, gently layer 60 μl of matrigel (10 mg/ml; kept on ice) in each well. Gently tap the plate so that matrigel is evenly distributed in each well. The assay thereafter involves the following steps and protocols of: Removing the ice under the plate and incubate the plate for 15 min at room temperature; transfer the plate to a 37° C. incubator for at least 30 min for the Matrigel to polymerize; prepare methanandamide at 2X the desired concentration in culture media; harvest RAEC (rabbit aortic endothelial cells) in culture media and adjust the cell density to 2×10^5/ml; mix 500 μl of drug with 500 μl of cell suspension and place 200 μl of this suspension in duplicate wells on polymerized matrigel (being cautious to not touch matrigel with the tip and to dispense cells very gently and slowly on the matrigel to avoid damage to matrigel layer); incubate the compound concentration in a 37° C. humidified incubator for 18-24 h observe condition of cords under a microscope.; take at least three pictures (10 X) from different fields from each well (or six pictures from duplicate wells); count number of junctions and tube length (mm) from each picture using Image Pro Image Analysis System; and analyze the data.
In accordance with a preferred embodiment of the present invention, the effect of methanandamide on rabbit aortic endothelial cells (RAEC) was tested for its ability to induce cord formation on matrigel. This process entails an accepted in vitro assay for angiogenesis. The procedures involve analyses with three different concentrations of methanandamide compound and repeated the experiments three different times in duplicate. As mentioned earlier above in the protocol, the 3 pictures from each well were taken. Therefore, for each concentration (data point) we have 18 scores. The analysis entails the measure of two parameters: (1) cord length; and (2) cord junction number.
In FIG. 1, there is shown representations for eighteen (18) scores of data points for each concentration of methanandamide compound analyzed. The scores indicated for each concentration of methanandamide resulted from three different concentrations of methanandamide, i.e. 10 nM, 50 nM, and 100 nM. Three (3) pictures taken from each field or well (Six (6) pictures for duplicate wells). Each treatment or analysis was done in duplicate in 3 separate sets, i.e., Set I, Set II, and Set III. Therefore, for each concentration data point has eighteen (18) scores (3×2×3=18 data points).

CCCCC/C=C\C/C=C\C/C=C\C/C=C\CCCC(=O)N[C@H](C)CO [Methanandamide, methyl arachidonyl ethanolamide]
Percent Increase in Cord length, Set I (Methanandamide 10 nM): 12% (2×) and 11% and 9% and 13% and 10% | Percent Increase in Cord length, Set II (Methanandamide 10 nM): 16% and 21% and 14% and 18% and 13% and 12% | Percent Increase in Cord length, Set III (Methanandamide 10 nM): 14% and 10% and 17% (2×) and 13% and 15% | Percent Increase in Cord length, Mean (Methanandamide 10 nM): 14% | Percent Increase in Cord length, Set I (Methanandamide 50 nM): 17% and 22% and 25% and 32% (2×) and 19% | Percent Increase in Cord length, Set II (Methanandamide 50 nM): 17% and 26% and 22% (2×) and 28% and 18% | Percent Increase in Cord length, Set III (Methanandamide 50 nM): 34% and 25% and 30, 30, Percent (2×) and 26% and 35% | Percent Increase in Cord length, Mean (Methanandamide 50 nM): 25% | Percent Increase in Cord length, Set I (Methanandamide 100 nM): 45% and 42% (2×) and 39% and 47% and 40% | Percent Increase in Cord length, Set II (Methanandamide 100 nM): 37% and 41% and 44% (2×) and 32% and 34% | Percent Increase in Cord length, Set III (Methanandamide 100 nM): 38% and 42% and 44% and 47% and 36% and 34% | Percent Increase in Cord length, Mean (Methanandamide 100 nM): 40%
